This is an account of results in patent US9421237B2, “Tripeptide boronic acid or boronic ester, preparative method and use thereof” (PEKING UNIVERSITY, priority 2009, dated 2016).

The target of data set [1] is T1, 20S proteasome extracted from rat liver, trypsin-like (TL) activity (Rattus norvegicus, UniProt P40112+Q9JHW0).
T1 construct: 20S proteasome extracted from rat liver; from tissue; host or cells: rat liver
The experiment in a line: Proteasome inhibition, trypsin-like (TL) activity, fluorescent peptide Z-Ala-Arg-Arg-AMC. Type of data set: biochemical. To be noted: rat liver 20S proteasome, 37° C., 1 h; read-out: T-L (IC50). How it is done: (§1) The activities of the proteasome were assayed using fluorescent peptides: Suc-leu-leu-Val-Tyr-AMC (Suc represents succinyl, and AMC represents 7-amino-4-methylcoumarin, purchased from SIGMA) for determining chymotryptic-like (CT-L) activity; Z-Ala-Arg-Arg-AMC (Z represents benzyloxycarbonyl, purchased from Calbiochem) for determining trypsin-like (TL) activity; and Z-leu-leu-Glu-βNA (βNA represents β-naphtylamide, purchased from SIGMA) for determining peptidyl-glutamyl-peptide-hydrolyzing (PGPH) enzyme activity.
(§2) Method for the aforesaid activity assays is as follows: 1 μg of 20S proteasome extracted from rat liver was incubated with a 100 μL solution containing various concentrations of compounds, 50 μM fluorescent peptides and 20 mM Tris-HCl at 37° C. for 1 h, respectively. The fluorescence released from AMC and RNA reagents was measured by a spectrofluorimeter Fluostar OPTIMA and BMG Germany at excitation/emission wavelengths of 380/440 nm and 335/410 nm, respectively. 0.1% DMSO was used as a solvent control. Compared with the fluorescence of solvent control, an inhibition rate was calculated. Said assays used anticancer drug bortezomib (leukemia drug), namely PS341 as compound for positive control.

In data set [2] the target is T2, 20S proteasome extracted from rat liver, chymotryptic-like (CT-L) activity (Rattus norvegicus, UniProt P18421+P28075).
T2 construct: 20S proteasome extracted from rat liver; from tissue; host or cells: rat liver
The experiment in a line: Proteasome inhibition, chymotryptic-like (CT-L) activity, fluorescent peptide Suc-leu-leu-Val-Tyr-AMC. Type of data set: biochemical. Particulars: rat liver 20S proteasome, 37° C., 1 h. The procedure: as §1
Method for the aforesaid activity assays is as follows: 1 μg of 20S proteasome extracted from rat liver was incubated with a 100 μL solution containing various concentrations of compounds, 50 μM fluorescent peptides and 20 mM Tris-HCl at 37° C. for 1 h, respectively. The fluorescence released from AMC and RNA reagents was measured by a spectrofluorimeter Fluostar OPTIMA and BMG Germany at excitation/emission wavelengths of 380/440 nm and 335/410 nm, respectively. 0.1% DMSO was used as a solvent control. Compared with the fluorescence of solvent control, an inhibition rate was calculated.

Data set [3] deals with T3, 20S proteasome extracted from rat liver, peptidyl-glutamyl-peptide-hydrolyzing (PGPH) enzyme activity (Rattus norvegicus, UniProt P28073+Q9JHW0).
T3 construct: 20S proteasome extracted from rat liver; from tissue; host or cells: rat liver
The experiment in a line: Proteasome inhibition, PGPH activity, fluorescent peptide Z-leu-leu-Glu-βNA. To be noted: rat liver 20S proteasome, 37° C., 1 h. Type of data set: biochemical. The procedure:
as §1, §2

The next data set concerns murine H22 cells. The experiment in a line: In vivo anti-tumor activity, H22 tumor in ICR mice, oral administration. Particulars: 1 mg/kg orally once per day for 10 days. The procedure: Animal: ICR mice, half male and half female (18-22 g), provided by Laboratory Animal Science Department of Peking Medical University.
Tumor cell strain: murine H22 cells were provided by cell bank of pharmacological group of the State Key Laboratory of Natural and Biomimetic Drugs.
Method: Murine tumor cells were taken to be treated, and diluted to 5×10^6 cells/ml after treatment. The diluted tumor cells solution was inoculated to the left forelimb oxter of the mice with 0.2 ml/mouse under aseptic condition. 24 h after inoculation, the mice were divided into groups and orally administered once per day to the mice in each group for 10 days. At the 12th day, the tumors were peeled off and weighed, and the average weight of the tumor, standard deviation (SD) and p-value of each group were calculated.

The subject of data set [4] is HL-60 human leukemia cell. The experiment in a line: Preliminary anti-tumor screening in vitro, MTT method. Type of data set: cell-based. Set-up: key to Test results: +++: inhibition rates at three doses are greater than 50%; ++: inhibition rates at two doses are greater than 50%; +: inhibition rate at one dose is greater than 50%. To be noted: HL-60, MTT; for Test results: number of doses with inhibition > 50%; for inhibition at 0.05 µM / inhibition at 0.5 µM / inhibition at 5 µM: Homo sapiens, read-out: Inhibition rate %. The procedure: (§3) The test methods used in this test example is the routine method for anti-tumor activities test in pharmaceutical area, for example, referring to the following reference: (J. Immunol Method, 1983, 65, 55).
(§4) Test models: A: MTT method (HL-60 human leukemia); B: SRB method (BGC-823 human gastric cancer); C: SRB method (Bel-7402 human hepatocarcinoma); D: SRB method (KB human nasopharyngeal carcinoma).
(§5) The aforesaid tests were carried out with the compounds of Examples 1-26 in the present invention, test results are shown in Tables 2-5.

In data set [5] the test system is Bel-7402 human hepatocarcinoma cell. The experiment in a line: Preliminary anti-tumor screening in vitro, SRB method. Type of data set: cell-based. More on the design: key to Test results: +++: inhibition rates at three doses are greater than 50%; ++: inhibition rates at two doses are greater than 50%; +: inhibition rate at one dose is greater than 50%. To be noted: Bel-7402, SRB; for Test results: number of doses with inhibition > 50%; for inhibition at 0.05 µM / inhibition at 0.5 µM / inhibition at 5 µM: Homo sapiens, read-out: Inhibition rate %. How it is done: as §3, §4, §5
Background: The SRB assay estimates cell density from bound dye.

Data set [6] relates to BGC-823 human gastric cancer cell. The description is as above. Type of data set: cell-based. Set-up: key to Test results: +++: inhibition rates at three doses are greater than 50%; ++: inhibition rates at two doses are greater than 50%; +: inhibition rate at one dose is greater than 50%. To be noted: BGC-823, SRB; for Test results: number of doses with inhibition > 50%; for inhibition at 0.05 µM / inhibition at 0.5 µM / inhibition at 5 µM: Homo sapiens, read-out: Inhibition rate %. The procedure: as §3, §4, §5

Data set [7] relates to KB human nasopharyngeal carcinoma cell. The data set is described as above. Type of data set: cell-based. More on the design: key to Test results: +++: inhibition rates at three doses are greater than 50%; ++: inhibition rates at two doses are greater than 50%; +: inhibition rate at one dose is greater than 50%. Particulars: for inhibition at 0.05 µM / inhibition at 0.5 µM / inhibition at 5 µM: Homo sapiens, read-out: Inhibition rate %; for Test results: number of doses with inhibition > 50%. The procedure:
as §3, §4, §5

Usually melting point stands for the temperature, or range, at which the solid turns liquid. As a reminder, the IC50 is the concentration needed to halve the response being measured. The compound `CC(C)C[C@H](NC(=O)[C@H](CC(C)C)NC(=O)[C@H](Cc1ccccc1)NC(=O)c1cnccn1)B(O)O` [Compound 6k, N-pyrazineformyl-L-phenylalanyl-L-leucyl-L-leucine Boronic Acid] displayed a melting point of 116 to 118 °C. Further, the concentration for half-maximal inhibition (IC50) in data set [1] was more than 20 nM. In data set [2], the concentration for half-maximal inhibition (IC50) was 0.173 ± 0.033 nM. Moreover, in data set [3], the IC50 is 5.66 ± 0.839 nM.

For the compound `CC(C)C[C@H](NC(=O)[C@H](Cc1ccccc1)NC(=O)c1cnccn1)B(O)O` [PS341, Bortezomib, reference compound], in [1], the half-maximal inhibitory concentration (IC50) was more than 20 nM. The “Body weight (g) (X ± SD)” value in the data set on murine H22 cells (ICR mice with H22) turned out to be 0.65 ± 2.07 g. Moreover, in the data set on murine H22 cells (tumors weighed at 12th day), the “Inhibition rate (%)” value was determined as 62.05% and the “Tumor weight (g) (X ± SD)” value turned out to be 0.47 ± 0.20 g.

The term inhibition denotes the relative decrease from the control value, in per cent. `CC(C)C[C@H](NC(=O)[C@H](CC(C)C)NC(=O)[C@H](Cc1ccc2ccccc2c1)NC(=O)c1cnccn1)B1OC2CC3C[C@@H](C3(C)C)[C@]2(C)O1` (stereo partly drawn) [Compound 5m, Pinanediol N-pyrazineformyl-L-naphthylalanyl-L-leucyl-L-leucine Borate] showed a melting point of 99 to 100 °C. For the same compound, in data set [4], the Test results is recorded as “++”, the inhibition at 0.05 µM was 11.2%, the inhibition at 0.5 µM came to 82.7% and the inhibition at 5 µM was 87.9%. For the same compound, in data set [5], the Test results is recorded as “++”, the inhibition at 0.05 µM is 6.49%, the inhibition at 0.5 µM came to 52.6% and the inhibition at 5 µM amounted to 95.7%. Also, in data set [6], the Test results was “++”, the inhibition at 0.05 µM stood at 46%, the inhibition at 0.5 µM turned out to be 84.5% and the inhibition at 5 µM was determined as 97.2%. Further, in [7], the inhibition at 0.05 µM was determined as 8.59%, the inhibition at 0.5 µM came to 85.6%, the inhibition at 5 µM was 96.2% and the Test results is reported as “++”. Further, the half-inhibitory concentration (IC50) in data set [1] was more than 20 nM. The compound also showed an IC50 in data set [2] of 0.345 ± 0.106 nM.

Consider `CC(C)C[C@H](NC(=O)[C@H](Cc1c[nH]c2ccccc12)NC(=O)[C@H](Cc1ccccc1)NC(=O)c1cnccn1)B(O)O` [Compound 6j, N-pyrazineformyl-L-phenylalanyl-L-tryptophyl-L-leucine Boronic Acid], for which the IC50 in [1], in data set [2] and in [3] was more than 20 nM each time.

The compound `CC(C)C[C@H](NC(=O)[C@H](Cc1ccccc1)NC(=O)[C@H](CC(C)C)NC(=O)c1cnccn1)B1OC2CC3C[C@@H](C3(C)C)[C@]2(C)O1` (stereo partly drawn) [Compound 5e, Pinanediol N-pyrazineformyl-L-leucyl-L-phenylalanyl-L-leucine Borate] came in with a melting point of 63 to 65 °C. The IC50 in [1] was more than 20 nM. This compound displayed a half-inhibitory concentration (IC50) in [2] of 0.431 ± 0.086 nM. In data set [3], the half-maximal inhibitory concentration (IC50) came to 3.405 ± 0.021 nM.

In the case of `CC(C)C[C@H](NC(=O)[C@H](Cc1ccccc1)NC(=O)[C@H](Cc1c[nH]c2ccccc12)NC(=O)c1cnccn1)B(O)O` [Compound 6i, N-pyrazineformyl-L-tryptophyl-L-phenylalanyl-L-leucine Boronic Acid], the half-inhibitory concentration (IC50) in [1], in data set [2] and in data set [3] was more than 20 nM each time.

For `CC(C)C[C@H](NC(=O)[C@H](CC(C)C)NC(=O)[C@H](CC(C)C)NC(=O)c1cnccn1)B(O)O` [Compound 6l, N-pyrazineformyl-L-leucyl-L-leucyl-L-leucine Boronic Acid], the IC50 in data set [1], in data set [2] and in [3] was more than 20 nM each time.

In turn, `CC(C)C[C@H](NC(=O)[C@H](Cc1ccc2ccccc2c1)NC(=O)[C@H](Cc1ccccc1)NC(=O)c1cnccn1)B1OC2CC3C[C@@H](C3(C)C)[C@]2(C)O1` (stereo partly drawn) [Compound 5g, Pinanediol N-pyrazineformyl-L-phenylalanyl-L-naphthylalanyl-L-leucine Borate] yielded a melting point of 97 to 98 °C. For the same compound, in data set [4], the Test results is reported as “++”, the inhibition at 0.05 µM is -5.06%, the inhibition at 0.5 µM is 87.5% and the inhibition at 5 µM was found to be 88.3%. In addition, in [5], the Test results was “++”, the inhibition at 0.05 µM stood at 46.7%, the inhibition at 0.5 µM came out at 77.7% and the inhibition at 5 µM amounted to 94.7%. Besides, in [6], the Test results is reported as “+++”, the inhibition at 0.05 µM was 77.6%, the inhibition at 0.5 µM worked out at 95.4% and the inhibition at 5 µM came out at 95.9%. Moreover, in data set [7], the inhibition at 0.05 µM came to 62.8%, the inhibition at 0.5 µM is 95.5%, the inhibition at 5 µM was 96.5% and the Test results is recorded as “+++”. Also, the concentration for half-maximal inhibition (IC50) in data set [1] was more than 20 nM. This compound also displayed an IC50 in data set [2] of 0.443 ± 0.081 nM.

On to `CC(C)C[C@H](NC(=O)[C@H](CC1=CNC2C=CC=CC12)NC(=O)[C@H](Cc1ccccc1)NC(=O)c1cnccn1)B1OC2CC3C[C@@H](C3(C)C)[C@]2(C)O1` (stereo partly drawn) [Compound 5j], for which the IC50 in data set [1], in data set [2] and in data set [3] was more than 20 nM in each case.

In turn, `CC(C)C[C@H](NC(=O)[C@H](Cc1ccc2ccccc2c1)NC(=O)[C@H](Cc1ccc2ccccc2c1)NC(=O)c1cnccn1)B1OC2CC3C[C@@H](C3(C)C)[C@]2(C)O1` (stereo partly drawn) [Compound 5h, Pinanediol N-pyrazineformyl-L-naphthylalanyl-L-naphthylalanyl-L-leucine Borate] displayed a melting point of 136 to 137 °C. In data set [4], the Test results is listed as “++”, the inhibition at 0.05 µM came to 11.4%, the inhibition at 0.5 µM was determined as 85.5% and the inhibition at 5 µM was found to be 88.3%. In [5], the Test results is reported as “++”, the inhibition at 0.05 µM stood at 13.1%, the inhibition at 0.5 µM was found to be 51.7% and the inhibition at 5 µM amounted to 91%. Further, in [6], the Test results is “+++”, the inhibition at 0.05 µM worked out at 55%, the inhibition at 0.5 µM turned out to be 89% and the inhibition at 5 µM worked out at 95.4%. In data set [7], the inhibition at 0.05 µM is 20.8%, the inhibition at 0.5 µM is 91.2%, the inhibition at 5 µM is 94.6% and the Test results was “++”. For the same compound, in data set [1], the IC50 was more than 20 nM. Moreover, in [2], the IC50 came to 0.495 ± 0.092 nM.
